Experimental data published in US4208420A, “New benzo [d] thiazole derivatives, process for their preparation and their therapeutic applications” (priority 1977, dated 1980).

Experiments:
isolated ear artery = assay: action on the unstriated fibers of the isolated ear artery, in vitro; parameters: species or system rabbits; details: for Action on isolated arteries: at 2 × 10^-6 g/ml
From the text: (§1) research of an action on the unstriated fibers of the isolated saphena vein in dogs, and of the isolated ear artery of rabbits, in vitro.

[1] = test system: blood pressure, femoral rate of flow; assay: cardiovascular action: blood pressure and femoral rate of flow, in dogs; type: in vivo; details: i.v.
Experimental: determination of the blood pressure, of the femoral rate of flow and of the heart rate, and research for an antagonism or a potentiation of the catecholamines (epinephrine norepinephrine) on said parameters, in dogs; The test materials were administered as the hydrochlorides, either intraperitoneally (or intravenously, in the course of cardiovascular tests), or orally.

[2] = test system: pain contractions subsequent to intraperitoneal injection of 0.75% acetic acid; assay: Koster test: antagonism to pain contractions after intraperitoneal acetic acid, in mice; type: in vivo; details: Mus musculus, po, read-out: Analgesic action, Koster test ED50 p.o.
Experimental: antagonism to the pain contractions subsequent to intraperitoneal injection of 0.75% acetic acid, in mice (Koster test) The test materials were administered as the hydrochlorides, either intraperitoneally (or intravenously, in the course of cardiovascular tests), or orally.

[3] = test system: d-amphetamine-induced stereotypes; assay: potentiation of d-amphetamine-induced stereotypes, in rats; type: in vivo; details: at 3 mg/kg, p.o.
Experimental: potentiation of d-amphetamine-induced stereotypes, in rats;
(§2) The test materials were administered as the hydrochlorides, either intraperitoneally (or intravenously, in the course of cardiovascular tests), or orally.

acute toxicity, in mice = type: in vivo; details: for LD50: mouse, in vivo, mice
Experimental: as §2
Acute toxicity, in mice, is low, both intraperitoneally and orally.

[4] = test system: edema of the paw on subcutaneous carrageenin injection; assay: inhibition of edema of the paw on subcutaneous carrageenin injection, in rats; type: in vivo; details: Rattus norvegicus, po, read-out: Anti-inflammatory action ED50 p.o.
Experimental: inhibition of edema of the paw on subcutaneous carrageenin injection, in rats; The test materials were administered as the hydrochlorides, either intraperitoneally (or intravenously, in the course of cardiovascular tests), or orally.

hypoxic asphyxia = assay: cerebral protecting effect against hypoxic asphyxia under a reduced oxygen pressure; type: in vivo
food intake = assay: anorexiant effect (decreased food intake, in rats); type: in vivo; details: at 3 mg/kg, p.o.
Experimental: as §2
a central stimulant effect (increase of spontaneous motility, of amphetamine-induced stereotypes; of the antagonism of reserpine), sometimes accompanied by an anorexiant effect (decreased food intake, in rats);

[5] = test system: pain, in mice placed on a heating plate; assay: Eddy test: inhibition of pain, in mice placed on a heating plate; type: in vivo; details: Mus musculus, po, read-out: Analgesic action, Eddy test ED50 p.o.
Experimental: inhibition of pain, in mice placed on a heating plate (Eddy test) The test materials were administered as the hydrochlorides, either intraperitoneally (or intravenously, in the course of cardiovascular tests), or orally.

isolated saphena vein = assay: action on the unstriated fibers of the isolated saphena vein, in vitro; parameters: species or system dogs; details: for Action on isolated veins: at 2 × 10^-6 g/ml
From the text: as §1

[6] = test system: gastric ulcers due to stress; assay: inhibition of gastric ulcers due to stress, in rats; type: in vivo
[7] = test system: spontaneous motor activity; assay: spontaneous motor activity, in mice; type: in vivo; details: at 3 mg/kg, p.o.
Experimental: determination of the spontaneous motor activity, in mice; The test materials were administered as the hydrochlorides, either intraperitoneally (or intravenously, in the course of cardiovascular tests), or orally.

[8] = test system: reserpine-induced palpebral ptosis; assay: antagonism of reserpine-induced palpebral ptosis, in rats; type: in vivo; details: Rattus norvegicus, po, as hydrochloride
Experimental: antagonism of reserpine-induced palpebral ptosis, in rats; The test materials were administered as the hydrochlorides, either intraperitoneally (or intravenously, in the course of cardiovascular tests), or orally.

CNC1CCc2ncsc2C1.Cl (centres unmarked) [Example 3, 6-Methylamino-4,5,6,7-tetrahydro-benzo[d]thiazole hydrochloride]
Action on the isolated artery (isolated ear artery; concentration not given): 0
Cardiovascular action: blood pressure ([1]; 1-5 mg/kg): Hypertension
Cardiovascular action: femoral rate of flow ([1]; 1-5 mg/kg): substantial increase
ED50 [2]: 5 mg/kg
Action on amphetamine-induced stereotypes [3]: Increase
toxicity at the active dosages (acute toxicity, in mice; at the active dosages): does not exhibit noteworthy toxicity
LD50 (acute toxicity, in mice; ip): > 200 mg/kg
LD50 (acute toxicity, in mice; po): > 200 mg/kg
ED50 [4]: < 30 mg/kg
cerebral protecting effect against hypoxic asphyxia (hypoxic asphyxia): marked cerebral protecting effect
Anorexiant action (food intake): Anorexiant action
ED50 [5]: ≤ 3 mg/kg
Action on the isolated vein (isolated saphena vein; concentration not given): Contraction
inhibiting effect on the development of gastric ulcers due to stress [6]: potent inhibiting effect
Action on spontaneous motility [7]: Increase

NC1CCc2scnc2C1 (centres unmarked) [Example 7, 5-Amino-4,5,6,7-tetrahydro-benzo[d]thiazole]
LD50 (acute toxicity, in mice; ip): > 200 mg/kg
LD50 (acute toxicity, in mice; po): > 200 mg/kg

CNC1CCCc2scnc21 (centres unmarked) [Example 4, 4-Methylamino-4,5,6,7-tetrahydro-benzo[d]thiazole]
LD50 (acute toxicity, in mice; ip): > 200 mg/kg
LD50 (acute toxicity, in mice; po): > 200 mg/kg

Cc1nc2c(s1)CC(N)CC2.Cl (centres unmarked) [Example 1, 2-Methyl-6-amino-4,5,6,7-tetrahydro-benzo[d]thiazole hydrochloride]
Action on isolated arteries (isolated ear artery): Contraction
Cardiovascular action: blood pressure ([1]; 0.5 mg/kg): Hypotension
Cardiovascular action: blood pressure ([1]; 1-5 mg/kg): Hypertension
LD50 (acute toxicity, in mice; ip): < 100 mg/kg
LD50 (acute toxicity, in mice; po): > 200 mg/kg
ED50 [4]: 30 mg/kg
Action on isolated veins (isolated saphena vein): Contraction
inhibition at 10 mg/kg [8]: 40%

CNC1CCc2nc(C)sc2C1 (centres unmarked) [Example 2, 2-Methyl-6-methylamino-4,5,6,7-benzo[d]thiazole]
Action on isolated arteries (isolated ear artery): Contraction
Cardiovascular action: blood pressure ([1]; 0.5 mg/kg): Hypotension
Cardiovascular action: blood pressure ([1]; 1 mg/kg): Hypertension
ED50 [2]: 30 mg/kg
Action on amphetamine-induced stereotypes [3]: Increase
LD50 (acute toxicity, in mice; ip): ≥ 100 mg/kg
LD50 (acute toxicity, in mice; po): > 200 mg/kg
ED50 [4]: ≤ 10 mg/kg
Anorexiant action (food intake): anorexiant action
ED50 [5]: 3 mg/kg
Action on isolated veins (isolated saphena vein): Contraction
